Source: paper PMC3420979 (Bioorganic & medicinal chemistry letters, 2012)

How the values were obtained:
CpCDPK1 = target: T1, CpCDPK1 (Cryptosporidium parvum, UniProt A3FQ16); experiment: Enzyme inhibition assay, CpCDPK1; assay type: biochemical; details: IC50 against CpCDPK1 (nM), stated for both parasite CDPK1s
T1 sequence (A3FQ16 1-538): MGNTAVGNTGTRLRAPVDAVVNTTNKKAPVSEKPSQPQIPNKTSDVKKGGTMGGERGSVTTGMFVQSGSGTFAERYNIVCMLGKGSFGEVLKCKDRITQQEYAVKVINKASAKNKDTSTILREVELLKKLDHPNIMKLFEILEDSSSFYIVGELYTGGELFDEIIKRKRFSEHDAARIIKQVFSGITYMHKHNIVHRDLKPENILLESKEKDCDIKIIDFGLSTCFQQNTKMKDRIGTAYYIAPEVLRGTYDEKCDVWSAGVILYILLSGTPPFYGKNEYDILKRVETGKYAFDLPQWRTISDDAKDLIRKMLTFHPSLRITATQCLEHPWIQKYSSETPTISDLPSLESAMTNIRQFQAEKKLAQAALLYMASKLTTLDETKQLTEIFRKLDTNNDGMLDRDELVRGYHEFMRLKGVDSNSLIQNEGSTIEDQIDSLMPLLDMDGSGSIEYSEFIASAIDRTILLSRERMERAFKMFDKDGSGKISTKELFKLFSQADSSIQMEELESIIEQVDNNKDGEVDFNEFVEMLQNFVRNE

Abl = Abl (Homo sapiens, UniProt P00519); experiment: Human kinase inhibition, Abl; assay type: biochemical; details: parasite CDPK1s versus human Src or Abl
Chain of Abl (P00519 whole entry): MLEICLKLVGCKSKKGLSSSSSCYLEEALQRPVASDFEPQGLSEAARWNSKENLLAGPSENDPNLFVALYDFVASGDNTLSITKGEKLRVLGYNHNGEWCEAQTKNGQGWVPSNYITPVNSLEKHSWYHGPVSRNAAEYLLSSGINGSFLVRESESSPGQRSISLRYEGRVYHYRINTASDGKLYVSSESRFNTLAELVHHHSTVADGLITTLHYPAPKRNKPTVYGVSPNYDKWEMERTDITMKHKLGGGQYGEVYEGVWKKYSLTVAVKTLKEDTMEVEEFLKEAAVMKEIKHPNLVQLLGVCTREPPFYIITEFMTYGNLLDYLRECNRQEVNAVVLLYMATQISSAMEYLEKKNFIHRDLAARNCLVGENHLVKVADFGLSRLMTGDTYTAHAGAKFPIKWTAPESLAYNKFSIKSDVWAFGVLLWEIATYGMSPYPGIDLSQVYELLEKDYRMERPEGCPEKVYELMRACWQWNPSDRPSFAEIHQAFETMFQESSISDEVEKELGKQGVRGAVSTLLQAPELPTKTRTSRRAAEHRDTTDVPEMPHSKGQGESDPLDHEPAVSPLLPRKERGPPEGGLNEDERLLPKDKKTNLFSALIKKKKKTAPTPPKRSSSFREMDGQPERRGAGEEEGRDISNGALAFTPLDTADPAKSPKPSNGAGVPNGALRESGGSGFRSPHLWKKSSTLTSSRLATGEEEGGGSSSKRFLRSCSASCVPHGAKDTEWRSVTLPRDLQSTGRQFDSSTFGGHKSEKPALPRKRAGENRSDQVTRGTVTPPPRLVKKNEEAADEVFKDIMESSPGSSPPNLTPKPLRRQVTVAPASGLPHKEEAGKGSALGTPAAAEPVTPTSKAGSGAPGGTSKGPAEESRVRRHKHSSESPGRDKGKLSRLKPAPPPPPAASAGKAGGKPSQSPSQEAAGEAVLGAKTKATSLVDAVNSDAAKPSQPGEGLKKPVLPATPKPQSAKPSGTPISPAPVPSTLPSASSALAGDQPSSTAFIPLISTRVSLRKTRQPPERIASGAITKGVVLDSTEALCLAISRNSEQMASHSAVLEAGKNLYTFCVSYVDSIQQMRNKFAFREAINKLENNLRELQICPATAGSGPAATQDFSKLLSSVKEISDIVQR

| IC50 (CpCDPK1) | selectivity index over human Src or Abl (Abl) | SMILES |
| --- | --- | --- |
| < 50 nM | > 200 fold | CN1CCN(CCn2c(N)nc3ccc(C(=O)c4ccccc4)cc32)CC1 [7p] |
| < 50 nM | > 200 fold | Nc1nc2ccc(C(=O)c3ccccc3)cc2n1CCC1CCNCC1 [7c] |
